According to US6348445B1, “Biologically active peptides with reduced toxicity in animals and a method for preparing same” (priority 1992, dated 2002):
Where no end group is shown, it is not given here.

What was measured:
[1] = system: K-562 human chronic myelogenous leukemia cells; assay type: cell-based; settings: 24 h
Protocol: (§1) Human lung carcinoma cells, A-549 (ATCC), and human breast carcinoma cells, MDA-435 (from Sandoz), were grown in Ham's F12K medium (GIBCO-BRL) supplemented with […] fetal bovine serum. Human chronic myelogenous leukemia cells, K-562 (ATCC), were maintained in RPMI 1640 medium (GIBCO-BRL) supplemented with 10% fetal bovine serum. Human melanoma cell line, WM 1617 (from the Wistar Institute), was maintained in 2% Tumor media.
(§2) Cytotoxicity assays were performed on the cell lines described above using CytoLite (Packard Instrument Company) following the manufacture's instruction. Briefly, 2×10^4cells/well were seeded into black, 96-well ViewPlates (Packard Instrument Company) in 100 μl/well growth medium. Ser. dilutions of Magainin peptides were then added into the cells and the plates incubated for 24 hours in a humidified 5% CO2 atmosphere at 37° C. Following incubation, 25 μl/well of CytoLite activator solution was added followed by 125 μl/well of amplifier solution. Luminescence was measured on TopCount Microplate Scintillation and Luminescence counter (Packard Instrument Company) using a 1 second count time in SPC (single photon counting) mode at 25 ° C. All assays were performed in triplicate. The peptides tested in this assay were MSI-78(SEQ ID NO: 154 —NH2), MSI-1858(SEQ ID NO: 154 —NH2 Methane Sulfonate), MSI-344(SEQ ID NO: 154 —OH) and MSI-1857(SEQ ID NO: 154 —OH Methane Sulfonate). The results of these assays are shown in FIGS. 2-9 with the corresponding IC50 values in Table VIII. In all cases the activity of the methane sulfonated peptide was as good or better than the parent peptide as indicated by both the survival curves and the IC50 values.

[2] = system: A-549 human lung carcinoma cells; assay type: cell-based; settings: 24 h
Protocol: as §1, §2

[3] = system: WM 1617 human melanoma cells; assay type: cell-based; settings: 24 h
Protocol: as §1, §2

[4] = system: MDA-435 human breast carcinoma cells; assay type: cell-based; settings: 24 h
Protocol: as §1, §2

[5] = MTD and LD50, single intravenous administration; assay type: in vivo, mice
Protocol: Determinations of a maximal tolerated dose (MTD) of a single intravenous (i.v.) administration or intraperitoneal (i.p.) administration of MSI-344 or MSI-1857 in 100 CD-1®BR mice were done. The MTD of a single intravenous (i.v.) administration was 10 mg/kg for MSI-344 and 60 mg/kg for MSI-1857. The MTD of a single intraperitoneal (i.p.) administration was less than 20 mg/kg for MSI-344 and between 50 and 100 mg/kg for MSI-1857.
To determine estimates of MTDs and LD50s of MSI-344 and MSI-1857 administered intravenously or intraperitoneally as a single bolus in mice.
A 5 mg/mL solution of MSI-344 was made in saline (0.9% sodium chloride injection USP, Abbott, North Chicago, Ill.) corrected for peptide content. Solutions of MSI-344 at concentrations of 4, 3, 2, 1.5, 1, and 0.5 mg/mL were made by diluting the 5 mg/mL solution using saline as diluent. (Errors were made in solution preparation of the 4, 3, and 2 mg/mL solutions and results from groups with animals doses with these solutions, i.e. groups 12, 13, and 14, were eliminated from study analysis). A 20 mg/mL solution of MSI-1857 was made in saline. Solutions of MSI-1857 at concentrations of 15, 10, 8, 6, and 5 mg/mL were made by diluting the 20 mg/mL solution using saline as diluent.
Another 5 mg/mL solution of MSI-344 was made in saline corrected for peptide content. Solutions of 4, 3 and 2 mg/mL were made by diluting the 5 mg/mL solution using saline as diluent. A 15 mg/mL solution of MSI-1857 in saline was made corrected for peptide content. A 10 mg/mL solution was made by diluting the 15 mg/mL solution with saline.
Mice (four mice per dose group) were intravenously or intraperitoneally administered a single bolus of MSI-344 or MSI-1857 using an injection volume of 10 mL/kg of the appropriate solution concentration. If the first two mice in a group died immediately (within 10 secs) after administration of a dose then no other mice injected with this dose of this compound (for ethical reasons). Survival was monitored daily for at least eight days post-administration. Study designs are presented in Tables IX and X. Toxicity Study # 262 was a supplement to Toxicity Study #261.

[6] = Tox Study #261 group 2, 20 mg/kg IV, 2 injected
[7] = Tox Study #261 group 3, 15 mg/kg IV, 2 injected
[8] = Tox Study #261 group 4, 10 mg/kg IV, 4 injected
[9] = Tox Study #261 group 5, 5 mg/kg IV, 4 injected

GIGKFLKKAKKFGKAFVKILKK [MSI-344]
IC50 [1]: 20 µM
IC50 [2]: 10 µM
IC50 [3]: 5 µM
IC50 [4]: 8 µM
No. of Survivors Day 1 [5, 6]: 0
No. of Survivors Day 2 [5, 6]: 0
No. of Survivors Day 3 [5, 6]: 0
No. of Survivors Day 4 [5, 6]: 0
No. of Survivors Day 5 [5, 6]: 0
No. of Survivors Day 6 [5, 6]: 0
No. of Survivors Day 7 [5, 6]: 0
No. of Survivors Day 8 [5, 6]: 0
No. of Survivors Day 1 [5, 7]: 0
No. of Survivors Day 2 [5, 7]: 0
No. of Survivors Day 3 [5, 7]: 0
No. of Survivors Day 4 [5, 7]: 0
No. of Survivors Day 5 [5, 7]: 0
No. of Survivors Day 6 [5, 7]: 0
No. of Survivors Day 7 [5, 7]: 0
No. of Survivors Day 8 [5, 7]: 0
No. of Survivors Day 1 [5, 8]: 4
No. of Survivors Day 2 [5, 8]: 4
No. of Survivors Day 3 [5, 8]: 4
No. of Survivors Day 4 [5, 8]: 4
No. of Survivors Day 5 [5, 8]: 4
No. of Survivors Day 6 [5, 8]: 4
No. of Survivors Day 7 [5, 8]: 4
No. of Survivors Day 8 [5, 8]: 4
No. of Survivors Day 1 [5, 9]: 4
No. of Survivors Day 2 [5, 9]: 4
No. of Survivors Day 3 [5, 9]: 4
No. of Survivors Day 4 [5, 9]: 4
No. of Survivors Day 5 [5, 9]: 4
No. of Survivors Day 6 [5, 9]: 4
No. of Survivors Day 7 [5, 9]: 4
No. of Survivors Day 8 [5, 9]: 4
LD50 ([5]; mouse, in vivo, iv, CD-1 mice, estimated from dose response curves): 12.5 mg/kg
MTD ([5]; mouse, in vivo, iv, CD-1 mice, read-out: MTD of a single intravenous (i.v.) administration): 10 mg/kg
